The results in this text go back to patent publication US12344597B2, “Alkoxy-substituted pyridinyl derivatives as LPA1 receptor antagonists and their use in the treatment of fibrosis” (IDORSIA PHARMACEUTICALS LTD, priority 2018, dated 2025).

The term IC50 denotes the concentration that inhibits the measured activity by half.

human LPA1 receptor, sequence (Q92633 whole entry, the tested form may be a part): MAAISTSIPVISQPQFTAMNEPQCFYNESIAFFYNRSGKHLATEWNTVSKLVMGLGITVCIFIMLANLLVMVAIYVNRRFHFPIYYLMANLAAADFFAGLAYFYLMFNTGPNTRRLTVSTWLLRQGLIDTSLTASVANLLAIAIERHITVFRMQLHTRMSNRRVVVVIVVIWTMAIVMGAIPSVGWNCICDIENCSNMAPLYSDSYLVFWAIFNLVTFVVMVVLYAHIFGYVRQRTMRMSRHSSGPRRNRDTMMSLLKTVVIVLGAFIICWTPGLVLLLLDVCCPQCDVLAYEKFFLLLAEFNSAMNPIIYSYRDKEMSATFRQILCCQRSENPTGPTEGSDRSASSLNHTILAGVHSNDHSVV

This assay concerns the target human LPA1 receptor (Homo sapiens (Human), UniProt Q92633). In words: Beta-arrestin recruitment assay to determine IC50 values for human LPAR1. Format: cell-based. The note with it: antagonist mode, Tango EDG2-bla U2OS cells, LPA 18:1 500 nM final. The procedure, abridged:
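Tango EDG2-bla U2OS cells: LPA-driven beta-arrestin/TEV protease recruitment releases Gal4-VP16, inducing beta-lactamase reporter read with live-cell substrate. Cells seeded 20 h at 37 °C beforehand. IC50 is antagonist concentration inhibiting 50% of maximal response.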
Background: Recruitment of arrestin is a read-out of receptor activation apart from second messengers.
With `Cc1ccc(NC(=O)C2(c3ccccc3C(C)C)CN(C(=O)CC3CCN(C)CC3)C2)c(OC(F)F)n1` [Ex 12-31, N-(2-(difluoromethoxy)-6-methylpyridin-3-yl)-3-(2-isopropylphenyl)-1-(2-(1-methylpiperidin-4-yl)acetyl)azetidine-3-carboxamide], half-maximal inhibition (IC50) was put at 337 nM.
The value for `Cc1ccc(NC(=O)C2(c3ccccc3C(C)C)CN(C(=O)CNCC3(O)CC3)C2)c(OC(F)F)n1` [Ex 12-57, N-(2-(difluoromethoxy)-6-methylpyridin-3-yl)-1-(((1-hydroxycyclopropyl)methyl)glycyl)-3-(2-isopropylphenyl)azetidine-3-carboxamide] was 17 nM.
`Cc1ccc(NC(=O)C2(c3ccccc3C(C)C)CN(Cc3ncco3)C2)c(OC(F)F)n1` [Ex 11-47, N-(2-(difluoromethoxy)-6-methylpyridin-3-yl)-3-(2-isopropylphenyl)-1-(oxazol-2-ylmethyl)azetidine-3-carboxamide] came in with an IC50 of 41 nM.
As to `Cc1ccc(NC(=O)C2(c3ccccc3C(C)C)CN(S(=O)(=O)CC3(C(=O)O)COC3)C2)c(OC(F)F)n1` [Ex 13-16, 3-(((3-((2-(difluoromethoxy)-6-methylpyridin-3-yl)carbamoyl)-3-(2-isopropylphenyl)azetidin-1-yl)sulfonyl)methyl)oxetane-3-carboxylic acid], the IC50 came to 16 nM.
The molecule `CCOC(=O)/C=C\C(=O)N1CC(C(=O)Nc2ccc(C)nc2OC(F)F)(c2ccccc2C(C)C)C1` [Ex 12-76, ethyl (Z)-4-(3-((2-(difluoromethoxy)-6-methylpyridin-3-yl)carbamoyl)-3-(2-isopropylphenyl)azetidin-1-yl)-4-oxobut-2-enoate] came in with a half-maximal inhibitory concentration (IC50) of 7 nM.
In turn, `Cc1ccc(NC(=O)C2(c3ccccc3C(C)C)CN(C(=O)O[C@H](C)C(=O)O)C2)c(OC(F)F)n1` [Ex 14-5, (R)-2-((3-((2-(difluoromethoxy)-6-methylpyridin-3-yl)carbamoyl)-3-(2-isopropylphenyl)azetidine-1-carbonyl)oxy)propanoic acid] showed a 50% inhibitory concentration (IC50) of 9 nM.
“(R)-2-amino-5-(3-((2-(difluoromethoxy)-6-methylpyridin-3-yl)carbamoyl)-3-(2-isopropylphenyl)azetidin-1-yl)-5-oxopentanoic acid [Ex 49]” returned an IC50 of 44 nM.
`Cc1ccc(NC(=O)C2(c3ccccc3C(C)C)CN(C(=O)CN(C)CC(=O)O)C2)c(OC(F)F)n1` [Ex 12-142, N-(2-(3-((2-(difluoromethoxy)-6-methylpyridin-3-yl)carbamoyl)-3-(2-isopropylphenyl)azetidin-1-yl)-2-oxoethyl)-N-methylglycine] returned a half-inhibitory concentration (IC50) of 18 nM.
`CC(=O)NS(=O)(=O)N1CC(C(=O)Nc2cccnc2OC(F)F)(c2ccccc2C(C)C)C1` [Ex 16-2, 1-(N-acetylsulfamoyl)-N-(2-(difluoromethoxy)pyridin-3-yl)-3-(2-isopropylphenyl)azetidine-3-carboxamide] registered a 50% inhibitory concentration (IC50) of 158 nM.
Turning to `COC(=O)CCCCS(=O)(=O)N1CC(C(=O)Nc2ccc(C)nc2OC(F)F)(c2ccccc2C(C)C)C1` [Ex 13-18, methyl 5-((3-((2-(difluoromethoxy)-6-methylpyridin-3-yl)carbamoyl)-3-(2-isopropylphenyl)azetidin-1-yl)sulfonyl)pentanoate], the IC50 amounted to 72 nM.
Molecule `Cc1ccc(NC(=O)C2(c3ccccc3C(C)C)CN(CC#N)C2)c(OC(F)F)n1` [Ex 11-88, 1-(cyanomethyl)-N-(2-(difluoromethoxy)-6-methylpyridin-3-yl)-3-(2-isopropylphenyl)azetidine-3-carboxamide] came in with a half-maximal inhibitory concentration (IC50) of 6 nM.
`Cc1ccc(NC(=O)C2(c3ccccc3C(C)C)CN(C(=O)C[C@H](O)C(=O)O)C2)c(OC(F)F)n1` [Ex 12-34, (S)-4-(3-((2-(difluoromethoxy)-6-methylpyridin-3-yl)carbamoyl)-3-(2-isopropylphenyl)azetidin-1-yl)-2-hydroxy-4-oxobutanoic acid] showed an IC50 of 33 nM.
Turning to `CC(C)c1ccccc1C1(C(=O)Nc2ncc(Cl)cc2OC(F)F)CN(CCC(C)(C)C(=O)O)C1` [Ex 78-2, 4-(3-((5-chloro-3-(difluoromethoxy)pyridin-2-yl)carbamoyl)-3-(2-isopropylphenyl)azetidin-1-yl)-2,2-dimethylbutanoic acid], 17 nM corresponded to half-maximal inhibition (IC50).
Turning to `Cc1ccc(NC(=O)C2(c3ccccc3C(C)C)CN(Cc3cnc(C(=O)O)cn3)C2)c(OC(F)F)n1` [Ex 11-55, 5-((3-((2-(difluoromethoxy)-6-methylpyridin-3-yl)-carbamoyl)3-(2-isopropylphenyl)azetidin-1-yl)methyl)pyrazine-2-carboxylic acid], the midpoint of inhibition, the IC50, lay at 142 nM.
Molecule `COCCN1CCC(CC(=O)N2CC(C(=O)Nc3ccc(C)nc3OC(F)F)(c3ccccc3C(C)C)C2)CC1` [Ex 12-139, N-(2-(difluoromethoxy)-6-methylpyridin-3-yl)-3-(2-isopropylphenyl)-1-(2-(1-(2-methoxyethyl)piperidin-4-yl)acetyl)azetidine-3-carboxamide] registered an IC50 of 165 nM.
In turn, `Cc1ccc(NC(=O)C2(c3ccccc3C3CCOCC3)CN(c3nc(C(=O)O)co3)C2)c(OC(F)F)n1` [Ex 32, 2-(3-((2-(difluoromethoxy)-6-methylpyridin-3-yl)carbamoyl)-3-(2-(tetrahydro-2H-pyran-4-yl)phenyl)azetidin-1-yl)oxazole-4-carboxylic acid] came in with an IC50 of 447 nM.
Turning to `COC(=O)C(C)(C)CC(=O)N1CC(C(=O)Nc2ccc(C)nc2OC(F)F)(c2ccccc2C(C)C)C1` [Ex 12-81, methyl 4-(3-((2-(difluoromethoxy)-6-methylpyridin-3-yl)carbamoyl)-3-(2-isopropylphenyl)azetidin-1-yl)-2,2-dimethyl-4-oxobutanoate], the half-inhibitory concentration (IC50) is 34 nM.
For `Cc1cnc(NC(=O)C2(c3ccccc3C(C)C)CN(C(=O)OCC(=O)O)C2)c(OC(F)F)c1` [Ex 83-2, 2-((3-((3-(difluoromethoxy)-5-methylpyridin-2-yl)carbamoyl)-3-(2-isopropylphenyl)azetidine-1-carbonyl)oxy)acetic acid], the half-maximal inhibitory concentration (IC50) is 88 nM.
`COc1cc(Br)cnc1NC(=O)C1(c2ccccc2C(C)C)CN(S(N)(=O)=O)C1` [Ex 81-2, N-(5-bromo-3-methoxypyridin-2-yl)-3-(2-isopropylphenyl)-1-sulfamoylazetidine-3-carboxamide] returned a 50% inhibitory concentration (IC50) of 13 nM.
As for `Cc1ccc(NC(=O)C2(c3ccccc3C(C)C)CCN(C(=O)C[C@@H]3OC(C)(C)OC3=O)CC2)c(OC(F)F)n1` [Ex 12-36, (S)-N-(2-(difluoromethoxy)-6-methylpyridin-3-yl)-1-(2-(2,2-dimethyl-5-oxo-1,3-dioxolan-4-yl)acetyl)-4-(2-isopropylphenyl)piperidine-4-carboxamide], the half-inhibitory concentration (IC50) worked out at 21 nM.
“N-(2-(difluoromethoxy)-6-methylpyridin-3-yl)-1-(3-(hydroxyamino)propanoyl)-3-(2-isopropylphenyl)azetidine-3-carboxamide [Ex 12-133]” displayed an IC50 of 140 nM.
The value for `Cc1ccc(NC(=O)C2(c3ccccc3C(C)C)CN(c3ccnc(C)n3)C2)c(OC(F)F)n1` [Ex 18-34, N-(2-(difluoromethoxy)-6-methylpyridin-3-yl)-3-(2-isopropylphenyl)-1-(2-methylpyrimidin-4-yl)azetidine-3-carboxamide] was 3 nM; that for `COC(=O)c1cnc(N2CC(C(=O)Nc3ccc(C)nc3OC(F)F)(c3ccccc3C(C)C)C2)nc1` [Ex 18-4, methyl 2-(3-((2-(difluoromethoxy)-6-methylpyridin-3-yl)carbamoyl)-3-(2-isopropylphenyl)azetidin-1-yl)pyrimidine-5-carboxylate] was 31 nM.
Molecule `Cc1ccc(NC(=O)C2(c3ccccc3C(C)C)CN(c3ccnc(C(=O)O)n3)C2)c(OC(F)F)n1` [Ex 18-11, 4-(3-((2-(difluoromethoxy)-6-methylpyridin-3-yl)carbamoyl)-3-(2-isopropylphenyl)azetidin-1-yl)pyrimidine-2-carboxylic acid] registered an IC50 of 34 nM.
`COC(=O)C(C)(C)CN1CC(C(=O)Nc2ccc(C)nc2OC(F)F)(c2ccccc2C(C)C)C1` [Ex 11-24, methyl 3-(3-((2-(difluoromethoxy)-6-methylpyridin-3-yl)carbamoyl)-3-(2-isopropylphenyl)azetidin-1-yl)-2,2-dimethylpropanoate] displayed a half-inhibitory concentration (IC50) of 280 nM.
`CC(C)c1ccccc1C1(C(=O)Nc2cccnc2OC(F)F)CN(c2ncncc2F)C1` [Ex 18-21, N-(2-(difluoromethoxy)pyridin-3-yl)-1-(5-fluoropyrimidin-4-yl)-3-(2-isopropylphenyl)azetidine-3-carboxamide]: the IC50 was 10 nM.
`Cc1ccc(NC(=O)C2(c3ccccc3C(C)C)CN(C(=O)CCOCC(=O)O)C2)c(OC(F)F)n1` [Ex 12-110, 2-(3-(3-((2-(difluoromethoxy)-6-methylpyridin-3-yl)carbamoyl)-3-(2-isopropylphenyl)azetidin-1-yl)-3-oxopropoxy)acetic acid] came in with an IC50 of 66 nM.
In turn, `Cc1ccc(NC(=O)C2(c3ccccc3C(C)C)CN(Cc3ccnc(C(=O)O)c3)C2)c(OC(F)F)n1` [Ex 11-51, 4-((3-((2-(difluoromethoxy)-6-methylpyridin-3-yl)carbamoyl)-3-(2-isopropylphenyl)azetidin-1-yl)methyl)picolinic acid] had a half-maximal inhibitory concentration (IC50) of 41 nM.
The molecule `Cc1ccc(NC(=O)C2(c3ccccc3C(C)C)CN(S(=O)(=O)CCCC(=O)O)C2)c(OC(F)F)n1` [Ex 13-17, 4-((3-((2-(difluoromethoxy)-6-methylpyridin-3-yl)carbamoyl)-3-(2-isopropylphenyl)azetidin-1-yl)sulfonyl)butanoic acid] had an IC50 of 7 nM.
For the molecule `Cc1ccc(NC(=O)C2(c3ccccc3C(C)C)CN(S(=O)(=O)CCC(=O)O)C2)c(OC(F)F)n1` [Ex 13-5, 3-((3-((2-(difluoromethoxy)-6-methylpyridin-3-yl)carbamoyl)-3-(2-isopropylphenyl)azetidin-1-yl)sulfonyl)propanoic acid], it took 4 nM to reach half-maximal inhibition (IC50).
